Data set [1] has as its system VSV-GFP. It counts as cell-based, Vesicular Stomatitis Virus.
The next data set concerns Flotillin-1. Kind of data set: cells. It counts as cell-based, human.
Data set [2] has as its system VSV-GFP. Description: microbe, parasite or virus in culture. It counts as cell-based, Vesicular Stomatitis Virus.
The subject of another data set is Nup98. Description: cells. The conditions noted are these: Homo sapiens, HeLa, 24 hrs, read-out: Nup98 protein level, % of control. It counts as cell-based.
In a further data set the test system is Rae1. Kind of data set: cells. It is filed as cell-based. The following applies: Homo sapiens, HeLa, 24 hrs, read-out: Rae1 protein level, % of control.
For a further data set, the system named is MxA. It is filed as cell-based, human. The following applies: 24 hrs.

Several values for one entry are separate records, joined by “and”; a condition that tells them apart may be missing. Identical values can stand only once. Like-named read-outs stand apart in the source and are kept apart here. Marks after values point to notes of the source that are not given here. Bounds are passed on as bounds.

`CC[C@H](C)C(=O)O[C@H]1C[C@@H](C)C=C2C=C[C@H](C)[C@H](CC[C@@H]3C[C@@H](O)CC(=O)O3)[C@H]21` [lovastatin]: in the data set on HeLa cells, the Cell survival is listed as roughly 30% and the “Toxicity to HeLa cells” value is reported as “highly toxic”.

Consider `CC[C@H](C)C(=O)O[C@H]1C[C@H](O)C=C2C=C[C@H](C)[C@H](CC[C@@H](O)C[C@@H](O)CC(=O)O)[C@H]21` [pravastatin], for which, in the data set on HeLa cells, the “Cell death rate, slope d” value is −1.20 % cells/μM Prava. Also, the “Cell death rate, slope c” value in the data set with HeLa cells (human) is on record as −1.78 % cells/μM Prava.

`CCC(C)(C)C(=O)O[C@H]1C[C@@H](C)C=C2C=C[C@H](C)[C@H](CC[C@@H]3C[C@@H](O)CC(=O)O3)[C@H]21` [simvastatin]: the “Pretreatment time required to inhibit VSV protein levels” value with VSV-GFP [1] was no less than 4 h. Moreover, the “Flotillin-1 levels, % of control” value with Flotillin-1 (0.125 µM) was ~160% and ~100%; in the data set with Flotillin-1 (0.5 µM), roughly 90%. Besides, the activity at 0.5 µM was roughly 75% in the data set on Flotillin-1 (Homo sapiens, HeLa, read-out: Flotillin-1 levels, % of control); 240% in the data set on Nup98 (0.5 μM); 310% with Rae1 (0.5 μM). Further, the “Decrease of pfu in log-units” value with VSV-GFP [2] is reported as 2 log-units. Also, the “Fold lower pfu than control VSV-infected cells” value in the data set on VSV-GFP [2] was found to be 660 fold. In addition, in the data set with VSV-GFP [2], the “Pfu values (viral titer of supernatant)” value is given as 1.80×10^4 (+/−3×10^3) pfu/ml. Further, the IC50 with VSV-GFP [2] (Vesicular stomatitis virus, HeLa, read-out: Concentration needed for reduction of pfu values to half of control (IC50)) stood at 278 nM. Further, the activity at 0.125 µM in the data set on Nup98 (0.125 μM) worked out at 180%; with Rae1 (0.125 μM), 196%. Also, the values for the activity at 2 µM with Nup98 (2.0 μM) and in the data set on Rae1 (2.0 μM) were 260% and 390%, respectively. Further, the results for the MxA protein levels in the data set with MxA (0.125 μM), in the data set on MxA (0.5 μM) and in the data set on MxA (2.0 μM) were roughly 400%, 650% and 150%, respectively. In addition, the “Cell death rate (Δ% cell death per ΔμM), slope b” value in the data set with HeLa cells is given as −2.61 % cells/μM Sim. Moreover, the “Slope a (m), relative trend of cell survival, FIG. 18” value in the data set with HeLa cells (0.125-2 μM 8 hrs) is on record as −6.54. The “Slope b (m), relative trend of cell survival, FIG. 18” value in the data set with HeLa cells (0.125-2 μM 8 hrs) is reported as −10.46. For the same compound, the “Cell death rate (Δ% cell death per ΔμM), slope a” value in the data set with HeLa cells (human) is −1.63 % cells/μM Sim.

Regarding Methyl-β-cyclodextrin [MβCD], in the data set with VSV-GFP [1], the “VSV G protein level, % of VSV control infection” value was 150% and 195% and 247% and 182% and 210%; the “VSV N/P protein level, % of VSV control infection” value was 153% and 220% and 150% and 275% and 147% and 162%. Also, in the data set on VSV-GFP [2], the “Attenuation of viral titers by pretreatment” value is recorded as “attenuated”, the “Fold decrease of VSV titers” value is given as 160 fold and the “VSV titer after pretreatment” value is 5.25×10^4 (+/1−5.5×10^3) pfu/ml. Moreover, in the data set with HeLa cells, the Cell survival is listed as roughly 20% and the “Toxicity to HeLa cells” value was “highly toxic”.

For the origin of these results see patent publication US9289456B2 (priority 2010, dated 2016).
